Patent US10052331B2, “3-(3H-imidazo[4,5-C]pyridin-2-yl)-1H-pyrazolo[3,4-C]pyridine and therapeutic uses thereof” (Samumed, LLC, priority 2014, dated 2018)

Tested on: Wnt activity (Wnt-responsive Sp5 promoter-luciferase reporter in SW480 cells)
Test: Wnt activity screening assay: Sp5-Luc reporter gene in SW480 colon carcinoma cells
Type: cell-based
Details: Homo sapiens
Description: The screening assay for Wnt activity is described as follows. Reporter cell lines can be generated by stably transducing cancer cell lines (e.g., colon cancer) or primary cells (e.g., IEC-6 intestinal cells) with a lentiviral construct that includes a Wnt-responsive promoter driving expression of the firefly luciferase gene.
SW480 colon carcinoma cells were transduced with a lentiviral vector expressing luciferase with a human Sp5 promoter consisting of a sequence of eight TCF/LEF binding sites. SW480 cells stably expressing the Sp5-Luc reporter gene and a hygromycin resistance gene were selected by treatment with 150 μg/ml of hygromycin for 7 days. These stably transduced SW480 cells were expanded in cell culture and used for all further screening activities. For Sp5-Luc reporter gene assays, the cells were plated at 10,000 cells/well in 96-well plates with growth medium containing 10% fetal calf serum and incubated overnight at 37° C. and 5% CO2. Each compound was dissolved in DMSO as a 10 mM stock in standard j-vials and used to prepare compound source plates in dose-response format with 3-fold serial dilutions and a 10 mM top concentration. Compound transfer from serially diluted source plates to assay plates containing the cells was accomplished using a pintool (Multimek 96, Beckman equipped with V&P Scientific FP1S50H pins) based liquid handling protocol. This protocol used a slotted pin to transfer 50 nl of compound from a source plate well to an assay plate well containing 50 μl of cells in growth medium. […] Control wells received 50 nl of DMSO treatment for normalization and calculating IC50 values. The treated cells were incubated at 37° C. and 5% CO2 for an additional forty-two hours. Following incubation, the growth medium was removed and 50 μl of BrightGlo luminescence reagent (Promega) was added to each well of the 96-well assay plates. The plates were placed on an orbital shaker for 5 min and then luminescence was quantified on the Victor3 (Perkin Elmer) plate reader. Readings were normalized to DMSO only treated cells, and normalized activities were utilized for IC50 calculations using the dose-response log (inhibitor) vs. response-variable slope (four parameters) nonlinear regression feature available in GraphPad Prism 5.0 or 6.0.

| Structure (SMILES) | IC50 |
| --- | --- |
| CC(C)(C)C(=O)Nc1cncc(-c2cc3c(-c4nc5c(-c6ccc(F)cc6)cncc5[nH]4)n[nH]c3cn2)c1 [Compound 34, N-(5-(3-(7-(4-Fluorophenyl)-3H-imidazo[4,5-c]pyridin-2-yl)-1H-pyrazolo[3,4-c]pyridin-5-yl)pyridin-3-yl)pivalamide] | 174 nM |
| O=C(Nc1cncc(-c2cc3c(-c4nc5c(-c6ccc(F)cc6)cncc5[nH]4)n[nH]c3cn2)c1)C1CCC1 [Compound 46, N-(5-(3-(7-(4-Fluorophenyl)-3H-imidazo[4,5-c]pyridin-2-yl)-1H-pyrazolo[3,4-c]pyridin-5-yl)pyridin-3-yl)cyclobutanecarboxamide] | 165 nM |
| CC(C)C(=O)Nc1cncc(-c2cc3c(-c4nc5c(-c6ccccc6F)cncc5[nH]4)n[nH]c3cn2)c1 [Compound 61, N-(5-(3-(7-(2-Fluorophenyl)-3H-imidazo[4,5-c]pyridin-2-yl)-1H-pyrazolo[3,4-c]pyridin-5-yl)pyridin-3-yl)isobutyramide] | 123 nM |
| CC(C)(C)CC(=O)Nc1cncc(-c2cc3c(-c4nc5c(-c6ccccc6F)cncc5[nH]4)n[nH]c3cn2)c1 [Compound 68, N-(5-(3-(7-(2-Fluorophenyl)-3H-imidazo[4,5-c]pyridin-2-yl)-1H-pyrazolo[3,4-c]pyridin-5-yl)pyridin-3-yl)-3,3-dimethylbutanamide] | 167 nM |
| CCCCC(=O)Nc1cncc(-c2cc3c(-c4nc5c(-c6ccccc6F)cncc5[nH]4)n[nH]c3cn2)c1 [Compound 70, N-(5-(3-(7-(2-Fluorophenyl)-3H-imidazo[4,5-c]pyridin-2-yl)-1H-pyrazolo[3,4-c]pyridin-5-yl)pyridin-3-yl)pentanamide] | 127 nM |
| CC(C)C(=O)Nc1cncc(-c2cc3c(-c4nc5c(-c6cccnc6)cncc5[nH]4)n[nH]c3cn2)c1 [Compound 87, N-(5-(3-(7-(Pyridin-3-yl)-3H-imidazo[4,5-c]pyridin-2-yl)-1H-pyrazolo[3,4-c]pyridin-5-yl)pyridin-3-yl)isobutyramide] | > 10000 nM |
| CC(C)Nc1cncc(-c2cc3c(-c4nc5c(-c6cccnc6)cncc5[nH]4)n[nH]c3cn2)c1 [Compound 90, N-Isopropyl-5-(3-(7-(pyridin-3-yl)-3H-imidazo[4,5-c]pyridin-2-yl)-1H-pyrazolo[3,4-c]pyridin-5-yl)pyridin-3-amine] | 93.5 nM |
| CCCCC(=O)Nc1cncc(-c2cc3c(-c4nc5c(-c6ccoc6)cncc5[nH]4)n[nH]c3cn2)c1 [Compound 278, N-(5-(3-(7-(Furan-3-yl)-3H-imidazo[4,5-c]pyridin-2-yl)-1H-pyrazolo[3,4-c]pyridin-5-yl)pyridin-3-yl)pentanamide] | 115 nM |
| Fc1cccc(-c2cncc3[nH]c(-c4n[nH]c5cnc(-c6cn[nH]c6)cc45)nc23)c1 [Compound 887, 3-(7-(3-Fluorophenyl)-3H-imidazo[4,5-c]pyridin-2-yl)-5-(1H-pyrazol-4-yl)-1H-pyrazolo[3,4-c]pyridine] | 6 nM |
| Fc1cccc(-c2cncc3[nH]c(-c4n[nH]c5cnc(-c6cncc(OC7CCCCC7)c6)cc45)nc23)c1 [Compound 891, 5-(5-(Cyclohexyloxy)pyridin-3-yl)-3-(7-(3-fluorophenyl)-3H-imidazo[4,5-c]pyridin-2-yl)-1H-pyrazolo[3,4-c]pyridine] | 735 nM |
| Fc1cccc(-c2cncc3[nH]c(-c4n[nH]c5cnc(-c6cncc(OC7CCNCC7)c6)cc45)nc23)c1 [Compound 892, 3-(7-(3-Fluorophenyl)-3H-imidazo[4,5-c]pyridin-2-yl)-5-(5-(piperidin-4-yloxy)pyridin-3-yl)-1H-pyrazolo[3,4-c]pyridine] | > 10000 nM |
| Fc1cccc(-c2cncc3[nH]c(-c4n[nH]c5cnc(-c6cncc(OCCN7CCCC7)c6)cc45)nc23)c1 [Compound 894, 3-(7-(3-Fluorophenyl)-3H-imidazo[4,5-c]pyridin-2-yl)-5-(5-(2-(pyrrolidin-1-yl)ethoxy)pyridin-3-yl)-1H-pyrazolo[3,4-c]pyridine] | > 10000 nM |
| Fc1cccc(-c2cncc3[nH]c(-c4n[nH]c5cnc(-c6cncc(OCc7ccccc7)c6)cc45)nc23)c1 [Compound 898, 5-(5-(Benzyloxy)pyridin-3-yl)-3-(7-(3-fluorophenyl)-3H-imidazo[4,5-c]pyridin-2-yl)-1H-pyrazolo[3,4-c]pyridine] | 520 nM |
| Fc1cccc(-c2cncc3[nH]c(-c4n[nH]c5cnc(-c6cnccn6)cc45)nc23)c1 [Compound 902, 3-(7-(3-Fluorophenyl)-3H-imidazo[4,5-c]pyridin-2-yl)-5-(pyrazin-2-yl)-1H-pyrazolo[3,4-c]pyridine] | 50 nM |
| CC(C)CC(=O)Nc1cncc(-c2cc3c(-c4nc5c(-c6cc(F)cc(OCCN(C)C)c6)cncc5[nH]4)n[nH]c3cn2)c1 [Compound 1192, N-(5-(3-(7-(3-(2-(Dimethylamino)ethoxy)-5-fluorophenyl)-3H-imidazo[4,5-c]pyridin-2-yl)-1H-pyrazolo[3,4-c]pyridin-5-yl)pyridin-3-yl)-3-methylbutanamide] | > 10000 nM |
| CC(C)CC(=O)Nc1cncc(-c2cc3c(-c4nc5c(-c6cc(F)cc(OCCN7CCCC7)c6)cncc5[nH]4)n[nH]c3cn2)c1 [Compound 1236, N-(5-(3-(7-(3-Fluoro-5-(2-(pyrrolidin-1-yl)ethoxy)phenyl)-3H-imidazo[4,5-c]pyridin-2-yl)-1H-pyrazolo[3,4-c]pyridin-5-yl)pyridin-3-yl)-3-methylbutanamide] | > 10000 nM |

Further lines, results first:

| IC50 | Structure (SMILES) |
| --- | --- |
| 61 nM | CCC(=O)Nc1cncc(-c2cc3c(-c4nc5c(-c6cccc(F)c6)cncc5[nH]4)n[nH]c3cn2)c1 [Compound 1, N-(5-(3-(7-(3-Fluorophenyl)-3H-imidazo[4,5-c]pyridin-2-yl)-1H-pyrazolo[3,4-c]pyridin-5-yl)pyridin-3-yl)propionamide] |
| 120 nM | CC(C)CC(=O)Nc1cncc(-c2cc3c(-c4nc5c(-c6cccc(F)c6)cncc5[nH]4)n[nH]c3cn2)c1 [Compound 2, N-(5-(3-(7-(3-Fluorophenyl)-3H-imidazo[4,5-c]pyridin-2-yl)-1H-pyrazolo[3,4-c]pyridin-5-yl)pyridin-3-yl)-3-methylbutanamide] |
| 17 nM | CCCC(=O)Nc1cncc(-c2cc3c(-c4nc5c(-c6cccc(F)c6)cncc5[nH]4)n[nH]c3cn2)c1 [Compound 17, N-(5-(3-(7-(3-Fluorophenyl)-3H-imidazo[4,5-c]pyridin-2-yl)-1H-pyrazolo[3,4-c]pyridin-5-yl)pyridin-3-yl)butyramide] |
| 21.6 nM | O=C(Nc1cncc(-c2cc3c(-c4nc5c(-c6cccc(F)c6)cncc5[nH]4)n[nH]c3cn2)c1)C1CC1 [Compound 19, N-(5-(3-(7-(3-Fluorophenyl)-3H-imidazo[4,5-c]pyridin-2-yl)-1H-pyrazolo[3,4-c]pyridin-5-yl)pyridin-3-yl)cyclopropanecarboxamide] |
| 170 nM | CC(C)CC(=O)Nc1cncc(-c2cc3c(-c4nc5c(-c6ccc(F)cc6)cncc5[nH]4)n[nH]c3cn2)c1 [Compound 28, N-(5-(3-(7-(4-Fluorophenyl)-3H-imidazo[4,5-c]pyridin-2-yl)-1H-pyrazolo[3,4-c]pyridin-5-yl)pyridin-3-yl)-3-methylbutanamide] |
| 79 nM | CC(C)CC(=O)Nc1cncc(-c2cc3c(-c4nc5c(-c6cccs6)cncc5[nH]4)n[nH]c3cn2)c1 [Compound 288, 3-Methyl-N-(5-(3-(7-(thiophen-2-yl)-3H-imidazo[4,5-c]pyridin-2-yl)-1H-pyrazolo[3,4-c]pyridin-5-yl)pyridin-3-yl)butanamide] |
| 1740 nM | O=C(CC1CCCCC1)Nc1cncc(-c2cc3c(-c4nc5c(-c6cccc(F)c6)cncc5[nH]4)n[nH]c3cn2)c1 [Compound 899, 2-Cyclohexyl-N-(5-(3-(7-(3-fluorophenyl)-3H-imidazo[4,5-c]pyridin-2-yl)-1H-pyrazolo[3,4-c]pyridin-5-yl)pyridin-3-yl)acetamide] |
